Measurements reported in the CheMixHub ionic liquid set.
± gives the uncertainty stated by the source.

Assay: xn = mol fraction of the nth substance listed
Conditions: 101 kPa

CCCCCCCCCCCCCC[n+]1ccccc1.O=C([O-])C(O)c1ccccc1 + NCC(=O)NCC(=O)O + O
electrical conductivity (298.15 K, x1 = 2.126e-05, x2 = 0): 0.0076 ± 0.001 S/m
electrical conductivity (298.15 K, x1 = 2.26e-05, x2 = 0.001799): 0.0098 ± 0.0012 S/m
electrical conductivity (298.15 K, x1 = 2.537e-05, x2 = 0.0009002): 0.0094 ± 0.0012 S/m
electrical conductivity (298.15 K, x1 = 2.788e-05, x2 = 0.001799): 0.0113 ± 0.0013 S/m
electrical conductivity (298.15 K, x1 = 2.811e-05, x2 = 0): 0.0097 ± 0.0012 S/m
electrical conductivity (298.15 K, x1 = 3.117e-05, x2 = 0.0009002): 0.0111 ± 0.0013 S/m
electrical conductivity (298.15 K, x1 = 3.335e-05, x2 = 0.001799): 0.0127 ± 0.0014 S/m
electrical conductivity (298.15 K, x1 = 3.46e-05, x2 = 0): 0.0116 ± 0.0013 S/m
electrical conductivity (298.15 K, x1 = 3.679e-05, x2 = 0.0009002): 0.0125 ± 0.0014 S/m
electrical conductivity (298.15 K, x1 = 3.864e-05, x2 = 0.001799): 0.014 ± 0.0015 S/m
electrical conductivity (298.15 K, x1 = 4.108e-05, x2 = 0): 0.0131 ± 0.0014 S/m
electrical conductivity (298.15 K, x1 = 4.386e-05, x2 = 0.0009001): 0.014 ± 0.0014 S/m
electrical conductivity (298.15 K, x1 = 4.574e-05, x2 = 0.001799): 0.0153 ± 0.0016 S/m
electrical conductivity (298.15 K, x1 = 4.811e-05, x2 = 0): 0.0144 ± 0.0015 S/m
electrical conductivity (298.15 K, x1 = 5.11e-05, x2 = 0.0009001): 0.0151 ± 0.0015 S/m
electrical conductivity (298.15 K, x1 = 5.321e-05, x2 = 0.001799): 0.0165 ± 0.0017 S/m
electrical conductivity (298.15 K, x1 = 5.388e-05, x2 = 0): 0.0154 ± 0.0016 S/m
electrical conductivity (298.15 K, x1 = 5.781e-05, x2 = 0.0009001): 0.0162 ± 0.0017 S/m
electrical conductivity (298.15 K, x1 = 5.982e-05, x2 = 0): 0.0163 ± 0.0017 S/m
electrical conductivity (298.15 K, x1 = 6.069e-05, x2 = 0.001799): 0.0177 ± 0.0018 S/m
electrical conductivity (298.15 K, x1 = 6.433e-05, x2 = 0.0009001): 0.0172 ± 0.0018 S/m
electrical conductivity (298.15 K, x1 = 6.559e-05, x2 = 0): 0.0172 ± 0.0018 S/m
electrical conductivity (298.15 K, x1 = 6.816e-05, x2 = 0.001799): 0.0187 ± 0.0019 S/m
electrical conductivity (298.15 K, x1 = 7.081e-05, x2 = 0): 0.018 ± 0.0018 S/m
electrical conductivity (298.15 K, x1 = 7.104e-05, x2 = 0.0009001): 0.0182 ± 0.0019 S/m
electrical conductivity (298.15 K, x1 = 7.454e-05, x2 = 0.001799): 0.0197 ± 0.002 S/m
electrical conductivity (298.15 K, x1 = 7.604e-05, x2 = 0): 0.0187 ± 0.0019 S/m
electrical conductivity (298.15 K, x1 = 7.81e-05, x2 = 0.0009001): 0.0193 ± 0.002 S/m
electrical conductivity (298.15 K, x1 = 8.072e-05, x2 = 0): 0.0194 ± 0.002 S/m
electrical conductivity (298.15 K, x1 = 8.128e-05, x2 = 0.001799): 0.0207 ± 0.0021 S/m
electrical conductivity (303.15 K, x1 = 5.26e-06, x2 = 0.0009002): 0.00375 ± 0.00084 S/m
electrical conductivity (303.15 K, x1 = 6.01e-06, x2 = 0.001799): 0.00569 ± 0.00092 S/m
electrical conductivity (303.15 K, x1 = 6.85e-06, x2 = 0): 0.00309 ± 0.00092 S/m
electrical conductivity (303.15 K, x1 = 9.97e-06, x2 = 0.0009002): 0.00533 ± 0.00091 S/m
electrical conductivity (303.15 K, x1 = 1.185e-05, x2 = 0.001799): 0.0076 ± 0.001 S/m
electrical conductivity (303.15 K, x1 = 1.424e-05, x2 = 0): 0.00587 ± 0.00099 S/m
electrical conductivity (303.15 K, x1 = 1.486e-05, x2 = 0.0009002): 0.0071 ± 0.001 S/m
electrical conductivity (303.15 K, x1 = 1.713e-05, x2 = 0.001799): 0.0094 ± 0.0012 S/m
electrical conductivity (303.15 K, x1 = 2.084e-05, x2 = 0.0009002): 0.0091 ± 0.0012 S/m
electrical conductivity (303.15 K, x1 = 2.126e-05, x2 = 0): 0.0084 ± 0.0011 S/m
electrical conductivity (303.15 K, x1 = 2.26e-05, x2 = 0.001799): 0.0112 ± 0.0013 S/m
electrical conductivity (303.15 K, x1 = 2.537e-05, x2 = 0.0009002): 0.0106 ± 0.0013 S/m
electrical conductivity (303.15 K, x1 = 2.788e-05, x2 = 0.001799): 0.0129 ± 0.0014 S/m
electrical conductivity (303.15 K, x1 = 2.811e-05, x2 = 0): 0.0108 ± 0.0013 S/m
electrical conductivity (303.15 K, x1 = 3.117e-05, x2 = 0.0009002): 0.0125 ± 0.0014 S/m
electrical conductivity (303.15 K, x1 = 3.335e-05, x2 = 0.001799): 0.0145 ± 0.0016 S/m
electrical conductivity (303.15 K, x1 = 3.46e-05, x2 = 0): 0.0129 ± 0.0014 S/m
electrical conductivity (303.15 K, x1 = 3.679e-05, x2 = 0.0009002): 0.0141 ± 0.0015 S/m
electrical conductivity (303.15 K, x1 = 3.864e-05, x2 = 0.001799): 0.0159 ± 0.0017 S/m
